One data set can be described thus: in vitro. The note with it: human, hela cells, % viability.
Broadly, the viability is a read-out of living cells in per cent, often relative to untreated cells. Turning to `COc1ccccc1NC(=O)C(=O)N/N=C/c1ccc(C(=O)O)cc1` [CBK262148], the viability at 28.5 h, 10 µM worked out at 93.8%.
For `NC(=O)CN1CCCN(c2cc(OCCc3c[nH]c4ccccc34)ncn2)CC1` [CBK091546], the viability at 28.5 h, 10 µM turned out to be 96.6%.
On the same count and under the same terms, to `CC1Oc2ccc(NC(=O)C3CC4C=CC3C43CC3)cc2NC1=O` (stereo not drawn) [CBK281523] belongs 101%; to `Fc1cccc2sc(Nc3nnc(-c4ccco4)o3)nc12` [CBK287480], 82.6%.
With `CC(C)[C@@H](CO)n1c(=O)[nH]c2ncc(-c3ccc(N4CCOCC4)cc3)nc21` [CBK064770], the viability at 28.5 h, 10 µM came to 110%.
With `Cc1csc2c(C3CCN(C(=O)c4ccnn4C)CC3)nc(C)n12` [CBK285249], the viability at 28.5 h, 10 µM came to 94.3%.
`CCOc1ccccc1NC(=O)c1cc2cccnc2n(Cc2ccc(Cl)cc2)c1=O` [CBK294395]: the viability at 28.5 h, 10 µM turned out to be 109%.
On the same count and under the same terms, to `CN(C)c1nc2n(c(=O)n1)CCS2` [CBK019025] belongs 92.3%; to `Cc1nc(-c2ccc(CNS(=O)(=O)c3ccc(Cl)cc3)cc2)ccc1C(N)=O` [CBK285643], 90.5%.
Still for that read-out and setting: to `CCOc1cc(C(=S)N2CCN(C)CC2)ccc1OCC(=O)N1CCOCC1` [CBK266856] belongs 101%; to `O=C1NCCCC12CCN(Cc1cnc(N3CCOCC3)nc1)CC2` [CBK285528], 111%; to `CCNC(=O)Nc1cc2cccnc2c(-c2ccsc2)n1` [CBK081226], 106%.
Take `Cn1c(CNC2CCCCC2)nc2ccccc21` [CBK058416]: the viability at 28.5 h, 10 µM is 111%.
The same measure, in the same setting: to `COC(=O)C1(Cc2cc(-c3ccc(F)cc3)no2)CCOCC1` [CBK285329] belongs 79.3%; to `Cc1cc(CN2CC3CCCN3C[C@@H]2C)c(C)n1CC1CCCO1` (stereo partly drawn) [CBK285419], 82%.
Same read-out and setting: to `Cc1ccc(C(=O)Nc2ccc(C)nc2C)cn1` [CBK200289] belongs 89.6%; to `CN(CC1COc2ccccc2O1)C(=O)CC1CCN(C(=O)CC2CCCCC2)CC1` (stereo not drawn) [CBK286265], 92.7%.
Still for that read-out and setting: to `Cc1[nH]nc(Nc2cccc(C(=O)O)c2)c1[N+](=O)[O-]` [CBK262725] belongs 96.2%.
`C[C@@H]1CN2CCCC2CN1Cc1ccc2ncccc2c1` (stereo partly drawn) [CBK284555]: the viability at 28.5 h, 10 µM is 99.3%.
The same measure, in the same setting: to `COc1ccc(N2CCN(c3cc(-c4ccccc4OCc4ccccc4)ncn3)CC2)cc1OC` [CBK091024] belongs 97.5%; to `O=c1c2ccccc2[nH]c(=S)n1CCCN1CCOCC1` [CBK092141], 88.1%; to `O=C(NCc1csc2c1CCCC2)N1CCCC(c2cc(O)ncn2)C1` (stereo not drawn) [CBK306705], 99.3%.
For the compound `Cc1ccc2cc(CN(CCN(C)C)C(=S)Nc3ccccc3)c(=O)[nH]c2c1` [CBK134909], the viability at 28.5 h, 10 µM worked out at 104%.
On the same count and under the same terms, to `NNC(=O)CSc1nnc(-c2ccccc2)n1-c1ccccc1` [CBK223486] belongs 92.5%; to `O=c1n(-c2ccccc2)c(=O)n(Cc2ccccn2)n1Cc1ccccn1` [CBK266630], 98.7%; to `NS(=O)(=O)c1ccc(Nc2c(C(=O)O)cc([N+](=O)[O-])cc2[N+](=O)[O-])cc1` [CBK261319], 93%.
Same read-out and setting: in the case of `Nc1ccc(-c2ccc3c(c2)OCCCO3)c2ccccc12` [CBK084325] it was 87.9%; in that of `O=C(Nc1nc2ccccc2s1)c1cnccn1` [CBK058664], 83.9%.
Still for that read-out and setting: in the case of `CCc1noc(C)c1C(=O)N1CC[C@@H](CNC(=O)N2CCCC2)[C@H](O)C1` [CBK307222] it was 88.3%.
Take `Clc1ccc(-c2csc3ncnc(SCc4ccco4)c23)cc1` [CBK265972]: the viability at 28.5 h, 10 µM stood at 90.5%.
As to `Oc1ccccc1-c1n[nH]c(=S)n1-c1ccc(OC(F)(F)F)cc1` [CBK288384], the viability at 28.5 h, 10 µM was 85.9%.
On the same count and under the same terms, to `CN1CCCN(CC(CC(=O)NCc2ccccc2)C(=O)O)CC1` (stereo not drawn) [CBK286791] belongs 86.6%; to `FC(F)(F)c1ccc(OCc2ccc(Cl)c(Cl)c2)nc1` [CBK115831], 90.2%; to `CS(=O)(=O)Nc1nccnc1N1CCNCC1` [CBK074045T], 105%.
Same read-out and setting: to `COc1ccc(S(=O)(=O)NCCNC(=O)c2ccc(-c3cccc(Cl)c3Cl)nc2NCc2cccnc2)cc1` [CBK076436] belongs 116%; to `Cc1ccc(N(CC(O)CN2C(=O)NC(C)(C)C2=O)S(=O)(=O)c2ccccc2)cc1` (stereo not drawn) [CBK263580], 99.2%; to `CCN1CCN(C(=O)c2cnccn2)CC1` [CBK200373], 81.6%.
The same measure, in the same setting: in the case of `Cc1ccc(S(N)(=O)=O)cc1NC(=O)c1ccc[nH]1` [CBK050200] it was 91.2%; in that of `CCOC(=O)c1c2c([nH]c(=S)c1C#N)CCCC2` [CBK020049], 97.6%; in that of `O=C(CC(NC1CCCC1)C(=O)O)Nc1ccc(F)cc1` (stereo not drawn) [CBK266976], 93.9%.
As for `COc1cc(OC)nc(CN2CCOC3(CCN(C(=O)c4ccc5ccccc5c4)CC3)C2)n1` [CBK161121A], the viability at 28.5 h, 10 µM was determined as 91.6%.
Still for that read-out and setting: in the case of `O=C(c1ccc(F)cc1)[C@H]1CCCN(C(=O)c2n[nH]c3c2CCC3)C1` [CBK282322] it was 86.7%; in that of `CC(=O)NCC1CCC(C(NC(=O)C2CC2)c2ccccn2)CC1` (stereo not drawn) [CBK283000], 87.5%; in that of `CC(=O)N1CCN(Cc2oc(C)cc(=O)c2O)CC1` [CBK288383], 91.6%.
Same read-out and setting: to `O=C(NC[C@H]1O[C@@H](CC(=O)N2CCN(c3ccc(F)cc3)CC2)[C@H](O)[C@@H]1O)C1CC1` [CBK288921] belongs 92.7%; to `O=C(NCC1CCCO1)c1sc2ccccc2c1Cl` (stereo not drawn) [CBK058604], 93.3%.
Same read-out and setting: to `Cc1ccc2nc(C)cc(C(=O)NNC(=O)Nc3ccc([N+](=O)[O-])cc3)c2c1` [CBK266890] belongs 98.8%.
On to `O=[N+]([O-])c1cc(F)ccc1Oc1cccc2c1CCCC2` [CBK002559], for which the viability at 28.5 h, 10 µM came out at 93.5%.
As to `CCOC(=O)C1=C(Nc2ccc(O)cc2)C(=O)N(C(C)(C)C)C1` [CBK005677], the viability at 28.5 h, 10 µM amounted to 83%.
The same measure, in the same setting: to `Cc1ccc2nc(-c3ccc(N)cc3)sc2c1S(=O)(=O)O` [CBK261510] belongs 96.3%; to `CCNc1nc2c(ncn2C2CC(O)C(CO)O2)c(=O)[nH]1` (stereo not drawn) [CBK201189], 99.6%; to `O=C(c1ccccc1F)N1CCC(c2nnc3n2CCCCC3)CC1` [CBK284628], 82.2%.
Still for that read-out and setting: to `O=C(CCCOc1ccccc1)Nc1cccnc1N1CCNCC1` [CBK028258T] belongs 97.3%; to `COc1ccc(C(=O)OC(C)(C)C)c(-c2cncc(N3CCCCC3CCO)n2)c1` (stereo not drawn) [CBK037786], 104%; to `CC(CNC(=O)COc1ccc2ccccc2c1Br)CN(C)C` (stereo not drawn) [CBK267369], 94.9%.
As for `O=C(Nc1nc(OCC(F)(F)F)cnc1-c1ccc(Cl)cc1Cl)c1cc2ccccc2s1` [CBK145358], the viability at 28.5 h, 10 µM is 87.4%.
The same measure, in the same setting: to `OCC12COC3c4ccccc4C(OC1)N32` (stereo not drawn) [CBK006347] belongs 89.5%.
With `N=C(N)NC(=N)NCCc1c[nH]c2ccccc12` [CBK267706G], the viability at 28.5 h, 10 µM amounted to 89.3%.
Take `COc1ccc(-c2nc(-c3cc4ccccc4o3)cnc2N)cc1OC` [CBK064099]: the viability at 28.5 h, 10 µM is 63.2%.
Same read-out and setting: in the case of `O=C(O)Cn1cc(I)c(=O)[nH]c1=O` [CBK262698] it was 98.6%; in that of `COCCN1C(=O)C2(CC(=O)N(C)C2=O)c2ccccc21` (stereo not drawn) [CBK075387], 102%; in that of `COc1ccccc1Cn1ncc2c1CCCC2NC(=O)C1CCC1` (stereo not drawn) [CBK282895], 110%.
The same measure, in the same setting: to `O[C@@]1(c2ccccn2)CC[C@H]2CN(Cc3ccccc3F)C[C@H]21` [CBK283001] belongs 94.3%.
The same measure, in the same setting: to `CCCc1nn(CC(=O)NC2CC2)c(=O)c2cc3ccsc3n12` [CBK284146] belongs 85.3%; to `N#Cc1ccc(NC(=O)CCn2cnnn2)cc1` [CBK269832], 91.4%; to `CC(=O)N1CCC[C@H]2NC(=O)CNC(=O)C3(C/C=C/C[C@H]21)CCN(Cc1cc[nH]n1)CC3` [CBK292164], 103%.
Turning to `COc1cc(C2N(Cc3ccccc3)CCN2Cc2ccccc2)ccc1OC(C)=O` [CBK261349], the viability at 28.5 h, 10 µM was 89.2%.
With `O=C(NCc1nnc2ccccn12)c1ccccc1` [CBK288064], the viability at 28.5 h, 10 µM stood at 110%.
Same read-out and setting: in the case of `CCOc1cc(/C=C2\SC(=N)NC2=O)ccc1OC(=O)c1cccs1` [CBK265510] it was 107%.
Same read-out and setting: to `Cn1c(C(O)c2ccccc2)n[nH]c1=S` (stereo not drawn) [CBK012984] belongs 117%; to `COc1ccc2cc([C@@H](O)C[C@@H](C)O)c(Cl)nc2c1` [CBK022146], 104%; to `O=C(O)C[S+]([O-])c1ccccc1C(=O)O` (stereo not drawn) [CBK263244], 96.3%.
The same measure, in the same setting: to `Cc1ccsc1C(=O)N1CCC(c2n[nH]c3ncccc23)CC1` [CBK284910] belongs 92.2%; to `O=C(O)c1ccc(/C=N/Nc2nc(N3CCOCC3)nc(N3CCOCC3)n2)cc1` [CBK262433], 99%.
`COc1ccc(-c2cnc(NCC3CC3)c(C(=O)NCc3ccccc3SC)c2)cc1` [CBK076437]: the viability at 28.5 h, 10 µM was determined as 110%.
As for `CCOC(=O)c1cnn2c(O)cc(CN(Cc3ccco3)C3CC3)nc12` [CBK305613], the viability at 28.5 h, 10 µM turned out to be 82.3%.
Consider `CCCCNc1cc(N(C)Cc2cnn(C)c2)nc(N)n1` [CBK304167], for which the viability at 28.5 h, 10 µM is 62.6%.
On the same count and under the same terms, to `OCCc1ccc(Nc2cc(-c3cc4ccccc4s3)ncn2)cc1` [CBK090770] belongs 103%; to `COc1ccc(S(=O)(=O)N(Cc2cc(F)cc(F)c2)C2CCNCC2)cc1` [CBK165292T], 89.8%.
Same read-out and setting: in the case of `O=[N+]([O-])c1ccccc1OCCNCc1ccccc1` [CBK265511G] it was 101%.

Staying with this data set, now noted: human, hela cells, % viability, bulk resorufin, single well.
Take `CC(=O)Nc1ccc(-c2ccc3c(c2)COC2(CCN(C(=O)Cc4ccc(F)cc4F)CC2)O3)cc1` [CBK122474]: the viability at 28.5 h, 10 µM stood at 102%.

The values are drawn from paper PMC12040169 (PLOS Biology, 2025).
